Source: PubChem BioAssay (NCI)
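48-hour exposure; five concentrations; linearly interpolated endpoints. TGI denotes the concentration required for complete inhibition of growth.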

Experiments:
Assay in all cases: DTP human tumour cell line panel, 48 h
NCI-H522 lung = test system: NCI-H522 lung
LOX IMVI melanoma = test system: LOX IMVI melanoma
MDA-MB-231 breast = test system: MDA-MB-231 breast
HOP-62 NSCLC = test system: HOP-62 NSCLC
CAKI-1 renal = test system: CAKI-1 renal
NCI-H226 lung = test system: NCI-H226 lung
KM12 colon = test system: KM12 colon
SF-539 CNS = test system: SF-539 CNS
SF-268 CNS = test system: SF-268 CNS
SK-MEL-28 melanoma = test system: SK-MEL-28 melanoma
NCI-H460 lung = test system: NCI-H460 lung
NCI-H23 lung = test system: NCI-H23 lung
MDA-N = test system: MDA-N
SN12C renal = test system: SN12C renal
HCC-2998 colon = test system: HCC-2998 colon
SK-OV-3 ovarian = test system: SK-OV-3 ovarian
MOLT-4 leukemia = test system: MOLT-4 leukemia
SR leukemia = test system: SR leukemia

Row | Structure (SMILES) | TGI (NCI-H522 lung) [µM] | TGI (LOX IMVI melanoma) [µM] | TGI (MDA-MB-231 breast) [µM] | TGI (HOP-62 NSCLC) [µM] | TGI (CAKI-1 renal) [µM] | TGI (NCI-H226 lung) [µM] | TGI (KM12 colon) [µM] | TGI (SF-539 CNS) [µM] | TGI (SF-268 CNS) [µM] | TGI (SK-MEL-28 melanoma) [µM] | TGI (NCI-H460 lung) [µM] | TGI (NCI-H23 lung) [µM] | TGI (MDA-N) [µM] | TGI (SN12C renal) [µM] | TGI (HCC-2998 colon) [µM] | TGI (SK-OV-3 ovarian) [µM] | TGI (MOLT-4 leukemia) [µM] | TGI (SR leukemia) [µM]
1 | CCN1CCc2sc3[nH]c(=S)n(C)c(=O)c3c2C1 | > 100 | > 100 | > 100 | > 100 | > 100 | > 100 | > 100 | > 100 | > 100 | > 100 | > 100 | > 100 | > 100 | > 100 | > 100 | > 100 | > 100 | 
2 | COC(=O)C1(C(=O)OC)CC2=C(S(=O)(=O)c3ccccc3)C[C@@H](C#N)[C@H]2C1 | > 100 | > 100 | > 100 | > 100 | > 100 | > 100 | > 100 | > 100 | > 100 | > 100 | > 100 | > 100 | > 100 | > 100 | 31.2 | > 100 | > 100 | 
3 | COc1ccc(/C=N/NC(=O)c2ccccc2Nc2ccccc2C(=O)N/N=C/c2ccc(OC)c(OC)c2)cc1OC |  |  | 89.1 | > 100 | > 100 | > 100 | > 100 |  | > 100 | > 100 | > 100 | > 100 | > 100 | > 100 | > 100 | > 100 | > 100 | > 100
4 | O=c1[nH]/c(=C/c2ccc(OCc3ccccc3)cn2)c(=O)[nH]/c1=C/c1cccnc1 | 0.588 | > 100 |  | > 100 | > 100 |  | > 36.8 |  | > 35 | > 100 | 7.82 |  | 0.71 |  | 3.16 | > 100 |  | > 100
5 | COc1cc(C2c3cc4c(c(O)c3C(=O)C3CCC(=O)N32)OCO4)cc(OC)c1OC (centres undefined) | 38.9 | > 100 |  | > 100 | > 100 | > 100 | > 100 | > 100 | > 100 | > 100 | > 100 | > 100 | 91.9 | > 100 | > 100 | > 100 | > 100 | > 100
6 | COc1cc2c(cc1C)NC(=O)/C2=C/c1c(Cl)n(C)c2ccccc12 |  | 22.7 | 65.1 | 29.5 | 24.4 | 27.2 | 16.6 | 56.5 | 16.2 | 62.6 | 29.1 | 21.6 | 5.53 | 33.3 | 20.1 | 39.8 | 72.7 | 
7 | c1ccc(C2(c3cc4ccccc4[nH]3)OCCO2)cc1 |  | > 100 | > 100 |  | > 100 | > 100 | > 100 | > 100 | > 100 | > 100 | > 100 | > 100 | > 100 | > 100 |  | > 100 | 49.4 | > 100
